Reference: patent US8575349B2, “Derivatives of 1-alkyl-6-oxo-piperidine-3-carboxylic acids and 1-alkyl-5-oxo-pyrrolidine-3-carboxylic acids and their uses as cooling compounds” (International Flavors & Fragrances Inc., priority 2010, dated 2013)

Assays:
Type in all cases: in vivo
[1] = Taste evaluation of the compound in water (cooling effect)
[2] = Hard candy containing the compound: cooling/taste profile over time; settings: 300 ppm; for overall effect of test candy versus control candy: cherry flavored hard candy; for Profile: hard candy
Description: First, the following formulation was prepared: […]
The above formulation was added to a stainless steel pot. With constant mixing, the formulation temperature was raised to 138° C. The pot was then removed from the heat, allowing cool to 120° C. and 0.7 g of flavor containing the ingredients in equal amounts: benzaldehyde, tolyl aldehyde, ethyl acetate, maltol, Davana oil, methyl heptinyl carbonate and 3 g of citric acid was added. The resulting cherry flavored liquid candy was then deposited into molds, and the molds containing the liquid candy were cooled to room temperature, yielding 600 g of finished hard candy. […] A test candy was further prepared using the above recipe modified by adding 0.18 g of 1-(2-isopropyl-5-methyl-cyclohexyl)-4-(pyrrolidine-1-carbonyl)-pyrrolidin-2-one (Structure VI, 300 ppm) or 1-(2-isopropyl-5-methyl-cyclohexyl)-4-(piperidine-1-carbonyl)-pyrrolidin-2-one (Structure VII, 300 ppm).

[3] = Chewing gum containing the compound: cooling/taste profile over time; settings: for Profile: gum; for overall effect of test gum versus control gum: orange-flavored gum
Description: The above formulation was prepared in a Sigma mixer. The resultant chewing gum blend was manufactured into strips of 1 inch in width and 0.1 inches in thickness. The strips were subsequently cut into a length of 3 inches each. […] A test gum was further prepared by adding 1-(2-isopropyl-5-methyl-cyclohexyl)-4-(pyrrolidine-1-carbonyl)-pyrrolidin-2-one (Structure VI, 800 ppm) or 1-(2-isopropyl-5-methyl-cyclohexyl)-4-(piperidine-1-carbonyl)-pyrrolidin-2-one (Structure VII, 1200 ppm).

SMILES: COC(=O)C1CC(=O)N(C2CC(C)CCC2C(C)C)C1 (stereo not shown) [Structure I, 1-(2-isopropyl-5-methyl-cyclohexyl)-5-oxo-pyrrolidine-3-carboxylic acid methyl ester]
- taste description / cooling effect ([1]; 10 ppm in water): mild cooling effect

SMILES: CC1CCC(C(C)C)C(N2CC(C(=O)O)CC2=O)C1 (stereo not shown) [Structure II, 1-(2-isopropyl-5-methyl-cyclohexyl)-5-oxo-pyrrolidine-3-carboxylic acid]
- taste description / cooling effect ([1]; 10 ppm in water): some cooling effect developed in the back of throat

SMILES: CC(C)CNC(=O)C1CC(=O)N(C2CC(C)CCC2C(C)C)C1 (stereo not shown) [Structure III, 1-(2-isopropyl-5-methyl-cyclohexyl)-5-oxo-pyrrolidine-3-carboxylic acid isobutyl-amide]
- taste description / cooling effect ([1]; 10 ppm in water): mild cooling effect

SMILES: CCN(C)C(=O)C1CC(=O)N(C2CC(C)CCC2C(C)C)C1 (stereo not shown) [Structure IV, 1-(2-isopropyl-5-methyl-cyclohexyl)-5-oxo-pyrrolidine-3-carboxylic acid ethyl-methyl-amide]
- taste description / cooling effect ([1]; 10 ppm in water): mild cooling effect

SMILES: COC(=O)C1CC(=O)N(C2CCCCC2C)C1 (stereo not shown) [Structure IX, 1-(2-methyl-cyclohexyl)-5-oxo-pyrrolidine-3-carboxylic acid methyl ester]
- taste description / cooling effect ([1]; 40 ppm in water): slight upfront bitterness for ˜20-30 seconds and mild cooling effect that slightly built up in a few minutes

SMILES: CC1CCC(C(C)C)C(N2CC(C(=O)N3CCC3)CC2=O)C1 (stereo not shown) [Structure V, 4-(azetidine-1-carbonyl)-1-(2-isopropyl-5-methyl-cyclohexyl)-pyrrolidin-2-one]
- taste description / cooling effect ([1]; 40 ppm in water): mild cooling, earthy, off-flavor, not bitter, napthalene, herbaceous, slight tingle effect on the tip of tongue, and garden hose, carrot, astringent, and waxy effect

SMILES: CC1CCC(C(C)C)C(N2CC(C(=O)N3CCCC3)CC2=O)C1 (stereo not shown) [Structure VI, 1-(2-isopropyl-5-methyl-cyclohexyl)-4-(pyrrolidine-1-carbonyl)-pyrrolidin-2-one]
- overall effect of test candy versus control candy [2]: substantial cooling effect
- Profile ([2]; at 0-1 minute): At 0-1 minute: cooling with slight bitterness;
- Profile ([2]; at 1-3 minutes): At 1-3 minutes: cooling built up;
- Profile ([2]; at 3-5 minutes): At 3-5 minutes: cooling on the roof of mouth;
- Profile ([2]; at 5-10 minutes): At 5-10 minutes: cooling with some bitterness;
- Profile ([2]; at 10-20 minutes): At 10-20 minutes: cooling with mild bitterness;
- Profile ([2]; at 20-30 minutes): At 20-30 minutes: cooling remained.
- taste description / cooling effect ([1]; 10 ppm in water): mild cooling effect with slight bitterness, the cooling effect built up over the time
- taste description / cooling effect ([1]; 50 ppm in water): cooling effect with bitterness, a menthol-like burning taste, and a nice built-up cooling taste
- Profile ([3]; 800 ppm, at 1-3 minutes): At 1-3 minutes: cooling delocalized on the tongue;
- Profile ([3]; 800 ppm, at 3-5 minutes): At 3-5 minutes: mild cooling located on the tongue;
- Profile ([3]; 800 ppm, at 5-10 minutes): At 5-10 minutes: moderate cooling on the tongue and the roof
- Profile ([3]; 800 ppm, at 20-30 minutes): At 20-30 minutes: clean sensation with a little bitterness.
- overall effect of test gum versus control gum ([3]; 800 ppm): pleasant cooling effect

SMILES: CC1CCC(C(C)C)C(N2CC(C(=O)N3CCCCC3)CC2=O)C1 (stereo not shown) [Structure VII, 1-(2-isopropyl-5-methyl-cyclohexyl)-4-(piperidine-1-carbonyl)-pyrrolidin-2-one]
- overall effect of test candy versus control candy [2]: substantial cooling effect
- Profile ([2]; at 0-1 minute): At 0-1 minute: bitterness;
- Profile ([2]; at 1-3 minutes): At 1-3 minutes: cooling breath, strong cooling;
- Profile ([2]; at 3-5 minutes): At 3-5 minutes: intense cooling;
- Profile ([2]; at 5-10 minutes): At 5-10 minutes: intense cooling throughout mouth;
- Profile ([2]; at 10-20 minutes): At 10-20 minutes: very strong cooling, almost burning;
- Profile ([2]; at 20-30 minutes): At 20-30 minutes: strong and lasting cooling.
- taste description / cooling effect ([1]; 40 ppm in water): slight upfront bitterness, herbaceous flavor, and built-up cooling effect
- Profile ([3]; 1200 ppm, at 0-1 minute): At 0-1 minute: cooling onset, throat and slight tongue irritation,
- Profile ([3]; 1200 ppm, at 1-3 minutes): At 1-3 minutes: cooling and irritation delocalized with some
- Profile ([3]; 1200 ppm, at 3-5 minutes): At 3-5 minutes: full mouth cooling, throughout mouth but not
- Profile ([3]; 1200 ppm, at 5-10 minutes): At 5-10 minutes: strong cooling in mouth, concentrated in the
- Profile ([3]; 1200 ppm, at 10-20 minutes): At 10-20 minutes: cooling peaked, consistent without any
- Profile ([3]; 1200 ppm, at 20-30 minutes): At 20-30 minutes: strong cooling in mouth and throat,
- overall effect of test gum versus control gum ([3]; 1200 ppm): pleasant cooling effect

SMILES: CC1CCC(C(C)C)C(N2CC(C(=O)N3CCCCCC3)CC2=O)C1 (stereo not shown) [Structure VIII, 4-(azepane-1-carbonyl)-1-(2-isopropyl-5-methyl-cyclohexyl)-pyrrolidin-2-one]
- taste description / cooling effect ([1]; 40 ppm in water): bitterness and cooling effect and both built up

SMILES: CC(C)(C)C1CCCCC1N1CC(C(=O)N2CCCC2)CC1=O (stereo not shown) [Structure X, 1-(2-tert-butyl-cyclohexyl)-4-(pyrrolidine-1-carbonyl)-pyrrolidin-2-one]
- taste description / cooling effect ([1]; 40 ppm in water): upfront bitterness, quinine, drying, greasy, and burning effect

SMILES: CC(C)(C)C1CCCCC1N1CC(C(=O)N2CCCCC2)CC1=O (stereo not shown) [Structure XI, 1-(2-tert-butyl-cyclohexyl)-4-(piperidine-1-carbonyl)-pyrrolidin-2-one]
- taste description / cooling effect ([1]; 40 ppm in water): some bitterness and drying, powdery, and minimal cooling effect

SMILES: CC1CCC(C(C)C)C(N2CC(C(=O)N3CCCC3)CCC2=O)C1 (stereo not shown) [Structure XII, 1-(2-isopropyl-5-methyl-cyclohexyl)-5-(pyrrolidine-1-carbonyl)-piperidin-2-one]
- taste description / cooling effect ([1]; 40 ppm in water): slight cooling, and bitter and drying effect

SMILES: CC1CCC(C(C)C)C(N2CC(C(=O)N3CCCCC3)CCC2=O)C1 (stereo not shown) [Structure XIII, 1-(2-isopropyl-5-methyl-cyclohexyl)-5-(piperidine-1-carbonyl)-piperidin-2-one]
- taste description / cooling effect ([1]; 40 ppm in water): grapefruit-like bitterness, and very mild cooling and drying effect
